Oligonucleotides are written 5' to 3', each unit as a sugar letter and its base; * is a phosphorothioate linkage, no mark a phosphodiester; rarer units and linkages stand in square brackets, end groups in braces. Plain capitals give the bases only. d = 2'-deoxy (DNA); {P} = phosphate
Test system: Jurkat cells
Assay: FACS cell cycle / apoptosis analysis of Jurkat cells
Assay type: cell-based, human
Settings: for cell cycle profile: 0.4 μM; for cells accumulated in the S-phase: 5 μM, within 72 hours (diluent 36%); for apoptosis in human T cells: summary of Example 13
Protocol: Oligonucleotides homologous to the telomere overhang repeat sequence (TTAGGG; SEQ ID NO:11), sequence (11mer-1: pGTTAGGGTTAG; SEQ ID NO: 5), complementary to this sequence (11mer-2: pCTAACCCTAAC; SEQ ID NO: 9) and unrelated to the telomere sequence (11mer-3: pGATCGATCGAT; SEQ ID NO: 10) were added to cultures of Jurkat cells, a line of human T cells, one of the cell types reported to undergo apoptosis in response to telomere disruption. Within 48 hours, 50% of the cells treated with 40 μM of SEQ ID NO: 5 had accumulated in the S phase, compared to 25–30% for control cells (p<0.0003, non-paired t-test; see FIGS. 19A–19D), and by 72 hours, 13% of these cells were apoptotic as determined by a sub-G0/G1 DNA content, compared to 2–3% of controls (p<0.007, non-paired t-test; see FIGS. 19E–19H). At 96 hours, 20±3% of the 11mer-1 treated cells were apoptotic compared with 3–5% of controls (p<0.0001, non-paired t-test). To exclude preferential uptake of the 11mer-1 as an explanation of its singular effects, Jurkat cells were treated with oligonucleotides labeled on the 3′ end with fluorescein phosphoramidite, then subjected to confocal microscopy and FACS analysis. The fluorescence intensity of the cells was the same after all treatments at 4 hours and 24 hours.
Three DNA oligonucleotides were designed initially: one homologous to the telomere overhang (11mer-1: pGTTAGGGTTAG; SEQ ID NO:5), one complementary to this sequence (11mer-2: pCTAACCCTAAC; SEQ ID NO:9) and one unrelated (11mer-3: pGATCGATCGAT; SEQ ID NO:10). For later experiments, additional 11 base oligonucleotides were designed: one a simple permutation of 11mer-1 (pGGGTTAGGGTT; SEQ ID NO:13), one with the same number of G residues but roughly 50% rather than 100% homology to the overhang (pTAGATGTGGTG; SEQ ID NO:14), and one with roughly 50% overhang homology but also containing cytosine bases (pCGGGCTTATTG; SEQ ID NO:15) (Midland Certified Reagent Company, Midland, Tex.). Cell Sources and Culture Human neonatal fibroblasts were established and cultured as previously described (Eller, M. S., et al., 1997, Proc Natl Acad Sci USA 94: 12627–12632). Fibroblasts from a Nijmegen breakage syndrome (NBS) patient (#GM07166) and an age-matched control (GM03399) were purchased from the NIGMS Human Cell Repository, Coriell Institute for Medical Research, Camden, N.J.) and cultured in DMEM/15% FBS. Saos-2 cells were purchased from the American Type Culture Collection (ATCC; Manassas, Va.). SCC12F cells were the kind gift of Dr. James Rheinwald, Harvard University. Cell Cycle Analysis The established line of human T lymphocytes, termed Jurkat cells (180,000 cells/ml) were plated in RPMI medium 1640 supplemented with 3% FBS (both from GIBCO/BRL, Gaithersburg, Md.). […] Cells were collected up to 96 hours after treatment, stained with propidium iodide and analyzed by FACS using a Becton-Dickinson FacsScan and CellQuest software. Caspase Activity
Oligonucleotides homologous to the 3′ overhang sequence (11mer-1: pGTTAGGGTTAG; SEQ ID NO:5), complementary to this sequence (11mer-2: pCTAACCCTAAC; SEQ ID NO:9) and unrelated to the telomere sequence (11mer-3: pGATCGATCGAT; SEQ ID NO:10) were synthesized. The three 11mer oligonucleotides were added to cultures of Jurkat cells, an established line of human T lymphocytes, a cell type reported to undergo apoptosis in response to telomere disruption [Karlseder, J., et al, (1999) Science 283, 1321–1325] and DNA damaging ionizing radiation (IR) [Vigorito, E., et al, (1999), Hematol Cell Ther 41, 153–161]. Duplicate cultures of Jurkat cells were treated with a final concentration of 40 μM 11mer-1, -2 or -3, oligonucleotides, or an equal volume of diluent (water) as a control. Cells were collected up to 96 hours after treatment, stained with propidium iodideandanalyzed by FACS. See also Example 13 and FIGS. 19A–19H.
To further confirm the specificity of these responses to the telomere overhang sequence, three variations were tested. […]

Substance: pGTTAGGGTTAG (DNA {P}-dGdTdTdAdGdGdGdTdTdAdG) [SEQ ID NO: 5]
- cell cycle profile (96 hours): neither of the oligonucleotides affected
- cells accumulated in the S-phase: 61%
- treated cells in the S-phase (20 μM, 72 hours): 58±1%
- apoptotic cells (sub-G0/G1 DNA content) (40 μM, 72 hours): 13%
- cells in S phase (40 μM, 72 hours): 38%
- apoptosis (sub-G0/G1 peak) (40 μM, 96 hours): induced extensive apoptosis
- apoptotic cells (40 μM, 96 hours): 20±3%
- cells accumulated in the S phase (40 μM, within 48 hours): 50%
- activity of the two complete telomere overhang homologs (separate paired cultures): equal in activity
- apoptosis in human T cells: induced human T cells to undergo apoptosis

Substance: thymidine dinucleotide [pTpT]
- higher concentration needed to duplicate the 11mer-1 effect on cell cycle arrest: 4 fold
- cells accumulated in the S-phase: 45%
- treated cells in the S-phase (20 μM, 72 hours): 53±1%
- apoptosis (20 μM, even at 96 hours): No apoptosis was detected

Substance: pCTAACCCTAAC (DNA, 5' {P}, backbone not given here) [SEQ ID NO: 9, reference compound]
- apoptosis in human T cells: did not significantly increase apoptosis

Substance: 11mer-1-S: phosphorothioate 11mer-1 (dG*dT*dT*dA*dG*dG*dG*dT*dT*dA*dG; further chemistry not fully specified)
- cell cycle profile (96 hours): neither of the oligonucleotides affected
- apoptosis (sub-G0/G1 peak) (40 μM, 96 hours): had no effect

Substance: pGATCGATCGAT (DNA {P}-dGdAdTdCdGdAdTdCdGdAdT) [SEQ ID NO: 10, reference compound]
- apoptosis in human T cells: did not significantly increase apoptosis
